The test system of data set [1] is recombinant NL4-3 virus (nef section replaced with Renilla luciferase gene) in MT-2 cells. The data set is described as follows: HIV cell culture assay (antiviral activity, luciferase readout). Format: cell-based. Here is the method:
HIV cell culture assay—MT-2 cells, 293T cells and the proviral DNA clone of NL4-3 virus were obtained from the NIH AIDS Research and Reference Reagent Program. MT-2 cells were propagated in RPMI 1640 media supplemented with 10% heat inactivated fetal bovine serum (FBS), 100 jag/ml penicillin G and up to 100 units/mL streptomycin. The 293T cells were propagated in DMEM media supplemented with 10% heat inactivated FBS, 100 μg/mL penicillin G and 100 μg/mL streptomycin. A recombinant NL4-3 proviral clone, in which a section of the nef gene was replaced with the Renilla luciferase gene, was used to make the reference virus used in these studies. The recombinant virus was prepared through transfection of the recombinant NL4-3 proviral clone into 293T cells using Transit-293 Transfection Reagent from Mirus Bio LLC (Madison, Wis.). Supernatant was harvested after 2-3 days and the amount of virus present was titered in MT-2 cells using luciferase enzyme activity as a marker by measuring luciferase enzyme activity. Luciferase was quantitated using the EnduRen Live Cell Substrate from Promega (Madison, Wis.). Antiviral activities of compounds toward the recombinant virus were quantified by measuring luciferase activity in MT-2 cells infected for 4-5 days with the recombinant virus in the presence of serial dilutions of the compound.
(Johnson V A, Byington R T. Infectivity Assay. In Techniques in HIV Research. ed. Aldovini A, Walker B D. 71-76. New York: Stockton Press. 1990).

A short description of data set [2]: Compound cytotoxicity, XTT-based colorimetric assay. Format: cell-based. The conditions noted are these: human, uninfected MT2 cells, day 4, XTT. Here is the method:
Compound cytotoxicity and the corresponding CC50 values were determined using the same protocol as described in the antiviral assay except that uninfected cells were used. Cytotoxicity was assessed on day 4 in uninfected MT2 cells by using a XTT (2,3-bis[2-Methoxy-4-nitro-5-sulfophenyl]-2H-tetrazolium-5-carboxyanilide inner salt)-based colorimetric assay (Sigma-Aldrich, St Louis, Mo.).

Where [3] appears, read: Renilla, NL43, MT-2 cells infected for 4-5 days with recombinant NL4-3 Renilla luciferase virus.

Like-named read-outs stand apart in the source and are kept apart here.

The EC50 is the midpoint of the concentration-response curve. The CC50 is the concentration giving 50% cytotoxicity. Read a low CC50 as greater toxicity to the cells. For `CCOc1ccc(N(CC)C(=O)[C@H](Cc2ccccc2)NC(=O)NS(=O)(=O)N2CCc3cc(Cl)cc(Cl)c32)cc1` [JB-76], the 50% effective concentration (EC50) in data set [1] (setting [3]) is 8.75 µM. In data set [2], this compound showed a 50% cytotoxic concentration (CC50) at 4 days of over 33.3 µM.

Turning to `COc1ccc(N(C)C(=O)[C@H](Cc2ccccc2)NC(=O)NS(=O)(=O)N(C)Cc2n[nH]c(=O)[nH]2)cc1` [JB-69], the EC50 in data set [1] (setting [3]) was determined as 3.69 µM. Moreover, the cytotoxic concentration (CC50) at 4 days in data set [2] is over 100 µM.

As to `CN(C(=O)[C@H](Cc1cc(F)cc(F)c1)NC(=O)NS(=O)(=O)N(C)c1cccnc1)c1ccc2scnc2c1` [CA-120], the concentration for a half-maximal effect (EC50) in data set [1] (setting [3]) stood at 0.27 µM. Besides, the CC50 at 4 days in data set [2] was over 100 µM. For the compound `COc1ccc(N(C)C(=O)[C@H](Cc2cc(F)cc(F)c2)NC(=O)NS(=O)(=O)N2CCc3ccncc32)cc1` [BB-10], the EC50 in data set [1] (setting [3]) turned out to be 1.08 µM. This compound yielded a CC50 at 4 days in data set [2] of over 100 µM.

As for `CN(C(=O)[C@H](Cc1cc(F)cc(F)c1)NC(=O)NS(=O)(=O)N1CCOc2cccnc21)c1ccc2scnc2c1` [AW-1], the EC50 in data set [1] (setting [3]) came out at 0.11 µM. This compound also returned a CC50 at 4 days in data set [2] of over 100 µM.

Take `COc1ccc(N(C)C(=O)[C@H](Cc2ccccc2)NC(=O)NS(=O)(=O)N(C)CC(=O)N(C)C)cc1` [JB-30]: the EC50 in data set [1] (setting [3]) was determined as 1.95 µM. The same compound showed a CC50 at 4 days in data set [2] of over 100 µM. With `CN(C(=O)[C@H](Cc1cc(F)cc(F)c1)NC(=O)NS(=O)(=O)N1CCCC1c1ccccn1)c1ccc2scnc2c1` (single isomer, unassigned) [VN-1], the EC50 in data set [1] (MT-2 cells infected for 4-5 days with recombinant NL4-3 Renilla luciferase virus) stood at 2.48 µM. In data set [2], the cytotoxic concentration (CC50) at 4 days is over 100 µM. Regarding `CN(C(=O)[C@H](Cc1cc(F)cc(F)c1)NC(=O)NS(=O)(=O)N1CCc2cccnc21)c1ccc(Cl)c(C#N)c1` [BB-23], in data set [1] (setting [3]), the concentration for a half-maximal effect (EC50) was 0.28 µM. In addition, the CC50 at 4 days in data set [2] is over 100 µM. Turning to `Cc1ccc(N(C)C(=O)[C@H](Cc2cc(F)cc(F)c2)NC(=O)NS(=O)(=O)N2CCc3cccnc32)cc1Cl` [BB-20], the EC50 in data set [1] (setting [3]) was 0.06 µM. The compound also gave a CC50 at 4 days in data set [2] of 60.7 µM. For `CCOc1ccc(N(CC)C(=O)[C@H](Cc2ccccc2)NC(=O)NS(=O)(=O)N2CCc3cccnc32)cc1` [JB-71] the same measures were 0.13 µM and over 33.3 µM.

`COc1ccc(N(C)C(=O)[C@H](Cc2ccccc2)NC(=O)NS(=O)(=O)Nc2ccc(Br)cc2)cc1` [CA-16]: the half-maximal effective concentration (EC50) in data set [1] (setting [3]) is 0.09 µM. The CC50 at 4 days in data set [2] is over 100 µM. Turning to `COc1ccccc1N(C)S(=O)(=O)NC(=O)N[C@@H](Cc1ccccc1)C(=O)N(C)c1ccc2ncccc2c1` [JB-13], the EC50 in data set [1] (setting [3]) was found to be 0.26 µM. In addition, in data set [2], the CC50 at 4 days is over 33.3 µM. On to `CN(C(=O)[C@H](Cc1cc(F)cc(F)c1)NC(=O)NS(=O)(=O)N1CC(F)(F)C1)c1ccc2scnc2c1` [CA-130], for which, in data set [1] (setting [3]), the EC50 came out at 0.45 µM. For the same compound, in data set [2], the CC50 at 4 days was over 100 µM. For the compound `CN(C(=O)[C@H](Cc1cc(F)cc(F)c1)NC(=O)NS(=O)(=O)n1ccc2nccnc21)c1ccc2scnc2c1` [ZY-18], the EC50 in data set [1] (setting [3]) worked out at 0.15 µM. Also, the CC50 at 4 days in data set [2] is over 100 µM. The matching figures for `CC(C)NS(=O)(=O)NC(=O)N[C@@H](Cc1cc(F)cc(F)c1)C(=O)N(C)c1ccc2scnc2c1` [CA-136]: 0.06 µM and over 100 µM. For `COc1ccc(N(C)C(=O)[C@H](Cc2ccccc2)NC(=O)NS(=O)(=O)NC(C)c2ncnn2C)cc1` (mixture of isomers) [JB-68] the same measures were 2.37 µM and over 100 µM. For `CN(C(=O)[C@H](Cc1cc(F)cc(F)c1)NC(=O)NS(=O)(=O)N1CCCc2cccnc21)c1ccc2scnc2c1` [VN-9] the same measures were 0.01 µM and over 100 µM. As to `COc1ccc(N(C)C(=O)[C@H](Cc2ccccc2)NC(=O)NS(=O)(=O)NCc2nccn2C)cc1` [JB-63], the EC50 in data set [1] (setting [3]) came out at 6.5 µM. The compound also gave a CC50 at 4 days in data set [2] of over 100 µM. As for `CC(=O)N1CCN(S(=O)(=O)NC(=O)N[C@@H](Cc2cc(F)cc(F)c2)C(=O)N(C)c2ccc3scnc3c2)CC1` [CA-148], in data set [1] (setting [3]), the EC50 is 10.3 µM. The same compound had a CC50 at 4 days in data set [2] of over 100 µM. Consider `Cc1cc(F)cc(N(C)C(=O)[C@H](Cc2cc(F)cc(F)c2)NC(=O)NS(=O)(=O)N2CCc3cccnc32)c1` [BB-13], for which the EC50 in data set [1] (setting [3]) was 0.27 µM. In addition, the midpoint of cytotoxicity in data set [2], the CC50 at 4 days, lay at 89.5 µM.

For `CN(C(=O)[C@H](Cc1cc(F)cc(F)c1)NC(=O)NS(=O)(=O)N1CC(C)(O)C1)c1ccc2scnc2c1` [CA-129], the EC50 in data set [1] (setting [3]) came out at 0.14 µM. Moreover, the CC50 at 4 days in data set [2] is over 100 µM. On to `CN(C(=O)[C@H](Cc1cc(F)cc(F)c1)NC(=O)NS(=O)(=O)N1CCc2ccncc21)c1ccc2scnc2c1` [BB-9], for which the EC50 in data set [1] (setting [3]) was found to be 0.41 µM. The CC50 at 4 days in data set [2] is over 100 µM. In the case of `Cc1ccc2c(n1)N(S(=O)(=O)NC(=O)N[C@@H](Cc1cc(F)cc(F)c1)C(=O)N(C)c1ccc3scnc3c1)CCC2` [VN-12], the EC50 in data set [1] (setting [3]) worked out at 0.01 µM. The same compound showed a CC50 at 4 days in data set [2] of over 50 µM. With `COc1ccc(N(C)C(=O)[C@H](Cc2ccccc2)NC(=O)NS(=O)(=O)Nc2ccc(C#N)cc2)cc1` [CA-15], the EC50 in data set [1] (setting [3]) was found to be 0.07 µM. The 50% cytotoxic concentration (CC50) at 4 days in data set [2] is over 100 µM. As to `COc1ccc(N(C)C(=O)[C@H](Cc2ccccc2)NC(=O)NS(=O)(=O)N2CCc3c(Cl)cccc32)cc1` [CA-1], in data set [1] (setting [3]), the EC50 amounted to 0.25 µM. The midpoint of cytotoxicity in data set [2], the CC50 at 4 days, lay at 21.4 µM.

For `CN(C(=O)[C@H](Cc1cc(F)cc(F)c1)NC(=O)NS(=O)(=O)Nc1cccc(Cl)c1)c1ccc2scnc2c1` [CA-116], in data set [1] (setting [3]), the concentration giving a half-maximal response (EC50) is 0.06 µM. It took 73.2 µM to reach half-maximal cytotoxicity in data set [2] (CC50 at 4 days).

As for `COc1ccc(N(C)C(=O)[C@H](Cc2ccccc2)NC(=O)NS(=O)(=O)NCc2cccc(-n3cccn3)c2)cc1` [JB-47], in data set [1] (setting [3]), the EC50 came to 3.41 µM. In addition, the CC50 at 4 days in data set [2] was over 100 µM. For `COc1ccc(N(C)C(=O)[C@H](Cc2ccccc2)NC(=O)NS(=O)(=O)N(C)c2ccccc2OC)cc1` [JB-23] the same measures were 0.87 µM and over 100 µM. For `COc1ccc(N(C)C(=O)[C@H](Cc2ccccc2)NC(=O)NS(=O)(=O)Nc2cc(Cl)ccc2F)cc1` [JB-49] the same measures were 0.2 µM and over 100 µM.

`COc1ccc(N(C)C(=O)[C@H](Cc2ccccc2)NC(=O)NS(=O)(=O)Nc2ccc(-c3ccccc3)cc2)cc1` [CA-29]: in data set [1] (setting [3]), the EC50 was 3.26 µM. The CC50 at 4 days in data set [2] is over 33.3 µM.

On to `COc1ccc(N(C)C(=O)[C@H](Cc2ccccc2)NC(=O)NS(=O)(=O)NC(C)c2cccnc2)cc1` (stereo partly drawn) [JB-65], for which, in data set [1] (setting [3]), the half-maximal effective concentration (EC50) was determined as 0.62 µM. Further, the CC50 at 4 days in data set [2] is over 100 µM. Turning to `COc1ccc(N(C)C(=O)[C@H](Cc2ccccc2)NC(=O)NS(=O)(=O)N2Cc3ccccc3S2(=O)=O)cc1` [JB-79], the EC50 in data set [1] (setting [3]) amounted to 8.61 µM. Besides, the CC50 at 4 days in data set [2] is over 100 µM. As to `CCN(CC)S(=O)(=O)NC(=O)N[C@@H](Cc1cc(F)cc(F)c1)C(=O)N(C)c1ccc2scnc2c1` [VN-21], the EC50 in data set [1] (setting [3]) was determined as 0.02 µM. In data set [2], this compound displayed a CC50 at 4 days of over 33.3 µM.

In the case of `COc1ccc(N(C)C(=O)[C@H](Cc2ccccc2)NC(=O)NS(=O)(=O)N2CCc3cc(C)ccc32)cc1` [CA-2], the EC50 in data set [1] (setting [3]) was found to be 0.14 µM. The same compound displayed a CC50 at 4 days in data set [2] of over 33.3 µM. For `[2H]c1nc2cc(N(C)C(=O)[C@H](Cc3cc(F)cc(F)c3)NC(=O)NS(=O)(=O)N3CCc4cccnc43)ccc2s1` [GW-23], the EC50 in data set [1] (setting [3]) is 0.02 µM. This compound also gave a CC50 at 4 days in data set [2] of over 10 µM.

`COc1ccc(N(C)C(=O)[C@H](Cc2ccccc2)NC(=O)NS(=O)(=O)NCc2n[nH]c3ccccc23)cc1` [JB-67]: the EC50 in data set [1] (MT-2 cells infected for 4-5 days with recombinant NL4-3 Renilla luciferase virus, read-out: EC50) turned out to be 0.18 µM. With `CC1CN(S(=O)(=O)NC(=O)N[C@@H](Cc2cc(F)cc(F)c2)C(=O)N(C)c2ccc3scnc3c2)c2ncccc21` (single isomer, unassigned) [VN-14], the CC50 at 4 days in data set [2] was over 100 µM.
